Drawing on publication PMC9785230, “Glutamine Synthetase Contributes to the Regulation of Growth, Conidiation, Sclerotia Development, and Resistance to Oxidative Stress in the Fungus Aspergillus flavus” (Toxins, 2022), this text covers IC50 for one compound.

Molecules are shown by their SMILES.

This test concerns the target T1, glutamine synthetase AflGsA (recombinant rAflGsA) (Aspergillus flavus, UniProt A0A7U2MSK3).
T1 construct: gene F9C07_2280198; 6× His-rAflGsA, AflgsA cDNA cloned into pET-28a, expressed in E. coli BL21 (DE3)
T1 sequence (A0A7U2MSK3 1-357): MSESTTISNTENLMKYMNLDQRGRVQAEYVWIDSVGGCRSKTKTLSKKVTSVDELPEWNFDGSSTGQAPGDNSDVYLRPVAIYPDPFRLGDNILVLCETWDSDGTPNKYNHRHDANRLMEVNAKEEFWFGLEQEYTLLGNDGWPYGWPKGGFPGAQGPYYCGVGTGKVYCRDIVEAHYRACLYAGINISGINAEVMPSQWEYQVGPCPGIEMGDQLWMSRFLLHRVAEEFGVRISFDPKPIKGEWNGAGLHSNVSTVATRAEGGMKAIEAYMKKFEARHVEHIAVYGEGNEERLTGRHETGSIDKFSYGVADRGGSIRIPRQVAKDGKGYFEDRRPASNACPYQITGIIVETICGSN
The test is described as follows: glutamine synthetase activity assay at […] nm with purified recombinant enzyme, IC50 curve. Format: biochemical.

One may read the IC50 as the point on the concentration scale where inhibition reaches its midpoint. Consider `N[C@@H](CCCC(=O)O)C(=O)O` [L-α-aminoadipic acid], for which the IC50 was 288 µM.
